{"source": "paper PMC8752738", "about": "“A propolis-derived small molecule ameliorates metabolic syndrome in obese mice by targeting the CREB/CRTC2 transcriptional complex” (Nature Communications, 2022)", "key": {"[1]": {"experiment": "Cholesterol, TG, NEFA and glycerol in serum and liver", "format": "in vivo, mouse", "parameters": "liver NEFA, Mean 2 (group mean) / Plasma VLDL cholesterol in db/db mice (VLDL-C) / Plasma VLDL cholesterol in db/db mice, group mean / TC in liver_CT2KO (total cholesterol in the liver of CRTC2-KO) / TC in liver_WT (total cholesterol in the liver) / TC in liver_WT, mean / TC in liver_WT, Mean Diff. VEH vs. drug / TC in liver_CRTC2KO, mean / TC in liver_CRTC2KO, Mean Diff. VEH vs. drug: unit not given here", "details": "for HF, plasma TG / HF, plasma TG, group mean / HF, plasma TG (Fast, TG): HF mice; for HF, plasma TG, group mean: n=6; for HF, plasma TG (Fast, TG): fasted", "description": "Serum total cholesterol (TC), LDL cholesterol (LDL-C), and HDL cholesterol (HDL-C) levels were detected using commercial kits (Beihua, China), and serum VLDL protein was determined by ELISA (Jiancheng, China).\nThe plasma TG and NEFA levels were determined using corresponding kits from Beihua (China) and WAKO (Japan), respectively. The TG levels of liver and WAT were tested by TG kit (Applygene, China). The NEFA in the liver and WAT were extracted by chloroform–methanol and then subjected to NEFA assay (WAKO)."}, "[2]": {"tested_on": "HEK293T cells", "experiment": "MTT assay, HEK293T cells", "format": "cell-based, human", "details": "Supp. Fig.10 b; individual replicates; Ctrl about 100", "description": "1 Supplementary Figure 10. A57 is novel inhibitor of the CREB/CRTC2 protein complex.\n2 a) The inhibitory-activity of A57 as determined by two-hybrid reporter assay. HEK293T cells were\n3 co-transfected with CREB/CRTC2 two-hybrid reporter system plasmids, following incubation with\n4 indicated small molecules (10 µM) overnight before luciferase reporter assays (n=4 per treatment).\n5 One of three independent experiments is shown here. Data are represented as mean ± SEM. *,\n6 p < 0.05; **, p < 0.01; p values were determined by one-way ANOVA followed Dunnett’s multiple\n8 b) Combinatorial analysis of the cell toxicity and inhibitory activity of A57. The CREB/CRTC2-two\n9 hybrid reporter activity (as a normalized percentage) is the X-axis, and the cell activity tested by MTT\n10 assay (as a normalized percentage) is the Y-axis. n=3.\n11 c) Immunoblot of P-CREB and CRTC2 de-phosphorylation in primary hepatocytes incubated with\n12 A57 and APC (10 µM) 1-h prior to glucagon (100 nM) stimulation for 30 min. One result from three\n13 experiments is shown here (top), and relative P-CREB normalized by CREB is presented as a bar\n14 graph (bottom, n=3). […]\n15 values were determined by two-way ANOVA followed Bonferroni’s multiple comparisons test. […]\n18 as mean ± SEM. ns, p > 0.05; *, p < 0.05; **, p < 0.01; p values were determined by two-way ANOVA […]"}, "[3]": {"details": "HF mice plasma, APC 10 mg/kg, individual animals"}, "[4]": {"details": "HF mice plasma, APC 20 mg/kg, N=5"}, "[5]": {"details": "HF mice plasma, APC 20 mg/kg, individual animals"}, "[6]": {"details": "APC 10 mg/kg, individual animals"}, "[7]": {"details": "APC 20 mg/kg, individual animals"}, "[8]": {"details": "db/db mice, plasma, individual animals"}}, "note": "Where “and” joins values, the source holds several entries; their conditions need not be identical. Equal entries are not always repeated."}
{"compound": "CC(C)=CCc1cc(C=CC(=O)O)cc(CC=C(C)C)c1O", "note": "[APC, 3,5-diprenyl-4-hydroxycinnamic acid]", "values": [{"measurement": "Plasma TC, group mean", "setting": "[1]; HF mice plasma, APC 10 mg/kg, N=5", "value": 159.1}, {"measurement": "Plasma cholesterol fraction: HDL-C", "setting": "[1]; [3]", "value": "121.556 mg/dL and 100.915 mg/dL and 96.3277 mg/dL and 114.676 mg/dL and 110.089 mg/dL"}, {"measurement": "Plasma cholesterol fraction: TC", "setting": "[1]; [3]", "value": "183.52 mg/dL and 143.341 mg/dL and 133.376 mg/dL and 156.357 mg/dL and 178.886 mg/dL"}, {"measurement": "Plasma cholesterol fraction: lDL-C", "setting": "[1]; [3]", "value": "34.819 mg/dL and 32.859 mg/dL and 26.6884 mg/dL and 35.653 mg/dL and 48.218 mg/dL"}, {"measurement": "plasma VLDL-C in HF mice", "setting": "[1]; [3]", "value": "7.592 mM and 8.572 mM and 12.094 mM and 7.185 mM and 10.797 mM"}, {"measurement": "Plasma LDLC, group mean", "setting": "[1]; [4]", "value": 35.83}, {"measurement": "Plasma TC, group mean", "setting": "[1]; [4]", "value": 149.8}, {"measurement": "Plasma cholesterol fraction: HDL-C", "setting": "[1]; [5]", "value": "115.823 mg/dl and 123.85 mg/dl and 106.649 mg/dl (2×) and 111.236 mg/dl"}, {"measurement": "Plasma cholesterol fraction: TC", "setting": "[1]; [5]", "value": "171.677 mg/dL and 165.819 mg/dL and 163.116 mg/dL and 116.704 mg/dL and 131.574 mg/dL"}, {"measurement": "Plasma cholesterol fraction: lDL-C", "setting": "[1]; [5]", "value": "30.997 mg/dL and 43.001 mg/dL and 39.18 mg/dL and 41.345 mg/dL and 24.6089 mg/dL"}, {"measurement": "plasma VLDL-C in HF mice", "setting": "[1]; [5]", "value": "7.201 mM and 6.888 mM and 6.935 mM and 9.593 mM and 6.573 mM"}, {"measurement": "HF, plasma TG", "setting": "[1]; [6]", "value": "206.957 mg/dL and 266.745 mg/dL and 324.233 mg/dL and 312.736 mg/dL and 213.856 mg/dL and 276.893 mg/dL"}, {"measurement": "HF, plasma TG, group mean", "setting": "[1]; APC 10 mg/kg", "value": 266.9}, {"measurement": "HF, plasma TG", "setting": "[1]; [7]", "value": "191.58 mg/dL and 265.587 mg/dL and 200.059 mg/dL and 301.238 mg/dL and 218.455 mg/dL and 257.547 mg/dL"}, {"measurement": "HF, plasma TG, group mean", "setting": "[1]; APC 20 mg/kg", "value": 239.1}, {"measurement": "HF, plasma TG (Fast, TG)", "setting": "[1]; [6]", "value": "2.336 mM and 3.011 mM and 3.66 mM and 3.53 mM and 2.414 mM and 3.1252 mM"}, {"measurement": "HF, plasma TG (Fast, TG)", "setting": "[1]; [7]", "value": "2.1623 mM and 2.9976 mM and 2.258 mM and 3.4 mM and 2.466 mM and 2.907 mM"}, {"measurement": "plasma NEFA", "setting": "[1]; WT lean mice ip APC, individual mice", "value": "0.3625 mM and 0.9375 mM (2×) and 0.4375 mM (2×) and 0.3875 mM and 0.3375 mM"}, {"measurement": "Plasma HDL cholesterol (HDLC) in db/db mice", "setting": "[1]; [8]", "value": "102.090 mg/dL and 118.865 mg/dL and 74.315 mg/dL and 130.914 mg/dL and 101.419 mg/dL"}, {"measurement": "Plasma LDL cholesterol (LDLC) in db/db mice", "setting": "[1]; [8]", "value": "136.268 mg/dL and 110.602 mg/dL and 104.635 mg/dL and 153.302 mg/dL and 128.968 mg/dL"}, {"measurement": "Plasma total cholesterol (TC) in db/db mice", "setting": "[1]; [8]", "value": "321.58 mg/dL and 345.006 mg/dL and 255.56 mg/dL and 362.043 mg/dL and 310.931 mg/dL"}, {"measurement": "plasma TG in db/db mice", "setting": "[1]; [8]", "value": "326.962 mg/dL and 300.088 mg/dL and 273.215 mg/dL and 309.046 mg/dL and 418.497 mg/dL"}, {"measurement": "Plasma total cholesterol (TLC) in db/db mice, group mean", "setting": "[1]; db/db mice, plasma, mean, N 5", "value": 319, "unit": "mg/dL"}, {"measurement": "Plasma VLDL cholesterol in db/db mice, group mean", "setting": "[1]; db/db mice, plasma, mean, sample size 5", "value": 14.3}, {"measurement": "TC in liver_CRTC2KO, Mean Diff. VEH vs. drug", "setting": "[1]; liver, CRTC2-KO mice, VEH minus drug", "value": 4.338}, {"measurement": "TG in liver_CT2KO, Mean Diff. vs. VEH", "setting": "[1]; liver, CRTC2-KO mice, drug minus VEH", "value": 1.019, "unit": "mg/g protein"}, {"measurement": "TC in liver_CRTC2KO, mean", "setting": "[1]; liver, CRTC2-KO mice, group mean (Mean 2), N=6", "value": 47.01}, {"measurement": "TG in liver_CT2KO, mean", "setting": "[1]; liver, CRTC2-KO mice, group mean, N=6", "value": 16.67, "unit": "mg/g protein"}, {"measurement": "TG in liver_CT2KO", "setting": "[1]; liver, CRTC2-KO mice, individual animals, Supp.fig.5c", "value": "24.3792 mg/g protein and 12.893 mg/g protein and 18.4652 mg/g protein and 10.1068 mg/g protein and 21.2872 mg/g protein and 12.8898 mg/g protein"}, {"measurement": "TC in liver_CT2KO (total cholesterol in the liver of CRTC2-KO)", "setting": "[1]; liver, CRTC2-KO mice, individual animals, Supp.fig.5d", "value": "58.4768 and 29.5309 and 45.7311 and 42.1461 and 61.1694 and 45.0332"}, {"measurement": "TC in liver_WT, Mean Diff. VEH vs. drug", "setting": "[1]; liver, WT mice, VEH minus drug", "value": 14.77}, {"measurement": "TG in liver_WT, Mean Diff. vs. VEH", "setting": "[1]; liver, WT mice, drug minus VEH", "value": -10.82, "unit": "mg/g protein"}, {"measurement": "TC in liver_WT, mean", "setting": "[1]; liver, WT mice, group mean (Mean 2), N=6", "value": 45.59}, {"measurement": "TG in liver_WT, mean", "setting": "[1]; liver, WT mice, group mean, N=6", "value": 9.137, "unit": "mg/g protein"}, {"measurement": "TG in liver_WT", "setting": "[1]; liver, WT mice, individual animals, Supp.fig.5c", "value": "10.5445 mg/g protein and 8.1654 mg/g protein and 11.0077 mg/g protein and 10.5773 mg/g protein and 6.8582 mg/g protein and 7.67 mg/g protein"}, {"measurement": "TC in liver_WT (total cholesterol in the liver)", "setting": "[1]; liver, WT mice, individual animals, Supp.fig.5d", "value": "40.0962 and 49.3508 and 44.4273 and 45.043 and 48.2093 and 46.4302"}, {"measurement": "plasma and liver cholesterol, liver TG in Crtc2-KO mice", "setting": "[1]; oral 20 mg/kg, 3 weeks", "value": "little effect"}, {"measurement": "Cell activity %", "setting": "[2]", "value": "95.723% and 93.186% and 92.837%"}]}
